Each block holds one molecule with its values, some of them ahead of it.
Target: T1, human Cot/Tpl2 kinase (Homo sapiens, UniProt P41279)
T1 construct: human Cot/Tpl2 kinase construct encoding residues 30-398; 6His (N); made in house; host or cells: Sf9 insect cells, baculovirus system (BD Biosciences)
Assay: Tpl2/Cot kinase assay: GST-MEK1 phosphorylation detected by ELISA (DELFIA Eu)
Assay type: biochemical
Method in brief: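 Substrate phosphorylation (GST-MEK1 Ser217/221) quantified by DELFIA europium ELISA, yielding IC50 values. Reaction: 1 h at 30° C, pH 7.2 MOPS buffer, 50 uM ATP, 35 nM GST-MEK1, 0.4 nM monomeric His-Tpl2 purified from Sf9 cells, compounds at 1% final DMSO; stopped with EDTA.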

[1] = Tpl2/Cot kinase, GST-MEK1 substrate, 50 uM ATP
[2] = 0.4 nM Tpl2, 35 nM GST-MEK1, 50 uM ATP, 1 h at 30° C.
[3] = Table 2, Tpl2/Cot kinase, GST-MEK1 substrate, 50 uM ATP
[4] = Tpl2/Cot kinase, GST-MEK1 substrate, 50 uM ATP, 1 h at 30° C., Table 2

T1 sequence (P41279 30-398): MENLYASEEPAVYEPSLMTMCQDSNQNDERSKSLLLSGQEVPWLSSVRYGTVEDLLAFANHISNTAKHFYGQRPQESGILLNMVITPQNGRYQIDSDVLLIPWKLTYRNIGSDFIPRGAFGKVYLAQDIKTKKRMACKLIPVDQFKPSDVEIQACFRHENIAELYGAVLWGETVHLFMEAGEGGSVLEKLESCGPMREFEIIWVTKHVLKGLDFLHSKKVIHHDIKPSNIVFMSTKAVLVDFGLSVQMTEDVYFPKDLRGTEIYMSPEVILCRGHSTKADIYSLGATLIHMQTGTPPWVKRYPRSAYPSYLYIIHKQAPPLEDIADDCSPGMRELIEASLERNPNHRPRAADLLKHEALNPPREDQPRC

- IC50 [1]: 620 nM
Structure (SMILES): N#Cc1cnc2c(Cl)cc(NCC3CCCN(C(=O)CN4CCCCCC4)C3)cc2c1Nc1ccc(F)c(Cl)c1 (centres unmarked) [Example 903]

- IC50 [1]: 270 nM
Structure (SMILES): N#Cc1cnc2c(Cl)cc(NCc3cn(Cc4cccc(C(F)(F)F)n4)nn3)cc2c1Nc1ccc(F)c(Cl)c1 [Example 882]

- IC50 [2]: 24 nM
Structure (SMILES): N#Cc1cnc2ccc(NCc3cccnc3)cc2c1Nc1cccc(Cl)c1 [Example 72, 4-(3-chlorophenylamino)-6-(pyridin-3-ylmethylamino)quinoline-3-carbonitrile]

- IC50 [3]: 90 nM
Structure (SMILES): N#Cc1cnc2c(Br)cc(NCc3cn(CCC4CCNCC4)nn3)cc2c1Nc1ccc(F)c(Cl)c1 [Example 517]

- IC50 [2]: > 40000 nM
Structure (SMILES): N#Cc1cnc2ccc(NCc3cnc(N4CCOCC4)s3)cc2c1Nc1ccc(F)c(Cl)c1 [Example 243, 4-[(3-chloro-4-fluorophenyl)amino]-6-{[(2-morpholin-4-yl-1,3-thiazol-5-yl)methyl]amino}quinoline-3-carbonitrile]

- IC50 [3]: 8400 nM
Structure (SMILES): CN(C)C(=O)c1cc(N)cc2c(Nc3cccc(Cl)c3)c(C#N)cnc12 [Example 359]

- IC50 [1]: 5.9 nM
Structure (SMILES): N#Cc1cnc2c(Cl)cc(NCc3cn(CCOC(N)=O)nn3)cc2c1Nc1ccc(F)c(Cl)c1 [Example 784]

- IC50 [2]: > 40000 nM
Structure (SMILES): Cc1nc2ccc(NCc3cccnc3)cc2c(Nc2ccc(F)c(Cl)c2)c1C#N [Example 255, 4-[(3-chloro-4-fluorophenyl)amino]-2-methyl-6-[(pyridin-3-ylmethyl)amino]quinoline-3-carbonitrile]

- IC50 [4]: > 3000 nM
Structure (SMILES): N#Cc1cnc2c(Cl)cc(NCc3cn(C4CCCN(CC(F)(F)C(F)(F)F)CC4)nn3)cc2c1Nc1ccc(F)c(Cl)c1 (centres unmarked) [Example 1012]

- IC50 [3]: > 10000 nM
Structure (SMILES): CN(C)c1cccc(Nc2c(C#N)cnc3ccc(NCCN4CCOCC4)cc23)c1 [Example 354]

- IC50 [2]: 1900 nM
Structure (SMILES): N#Cc1cnc2c(Cl)cc(NCCN=[N+]=[N-])cc2c1Nc1ccc(F)c(Cl)c1 [Example 210, 6-[(2-azidoethyl)amino]-8-chloro-4-[(3-chloro-4-fluorophenyl)amino]quinoline-3-carbonitrile]

- IC50 [3]: 400 nM
Structure (SMILES): CN(C)C(=O)c1cc(NCc2cccnc2)cc2c(Nc3cccc(Cl)c3)c(C#N)cnc12 [Example 376]

- IC50 [4]: 310 nM
Structure (SMILES): N#Cc1cnc2c(Cl)cc(NCc3cn(C4CCCN(CC(F)F)CC4)nn3)cc2c1Nc1ccc(F)c(Cl)c1 (centres unmarked) [Example 1010]

- IC50 [3]: 1000 nM
Structure (SMILES): N#Cc1cnc2ccc(Br)cc2c1Nc1ccc(Oc2ccccc2)cc1 [Example 336]

- IC50 [3]: 1900 nM
Structure (SMILES): Cc1[nH]c(C2CCCC2)nc1CNc1cc(Cl)c2ncc(C#N)c(Nc3ccc(F)c(Cl)c3)c2c1 [Example 441]

- IC50 [1]: 160 nM
Structure (SMILES): N#Cc1cnc2c(Br)cc(NCc3cncn3CCN3CCOCC3)cc2c1Nc1ccc(F)c(Cl)c1 [Example 668]

- IC50 [4]: 2310 nM
Structure (SMILES): CC(C)(C)OC(=O)N1CCC(n2cc(CNc3cc(Cl)c4ncc(C#N)c(NC5CCCCCC5)c4c3)nn2)CC1 [Example 948]

- IC50 [2]: 14700 nM
Structure (SMILES): CC(C)(C)OC(=O)COc1ccc(C#N)cc1CNc1ccc2ncc(C#N)c(Nc3ccc(F)c(Cl)c3)c2c1 [Example 45, (2-{[4-(3-Chloro-4-fluoro-phenylamino)-3-cyano-quinolin-6-ylamino]-methyl)-4-cyano-phenoxy)-acetic acid tert-butyl ester]

- IC50 [3]: 280 nM
Structure (SMILES): N#Cc1cnc2c(Br)cc(NCc3cnc4ccccn34)cc2c1Nc1ccc(F)c(Cl)c1 [Example 526]

- IC50 [2]: 24 nM
Structure (SMILES): N#Cc1cnc2ccc(NCc3ccc(S(=O)(=O)N4CCOCC4)cc3)cc2c1Nc1ccc(F)c(Cl)c1 [Example 120, 6-(4-(morpholinosulfonyl)benzylamino)-4-(3-chloro-4-fluorophenylamino)quinoline-3-carbonitrile]

- IC50 [2]: 4.4 nM
Structure (SMILES): CN1CCCC(n2cc(CNc3cc(Cl)c4ncc(C#N)c(Nc5ccc(F)c(Cl)c5)c4c3)nn2)CC1 (centres unmarked) [Example 329, 8-chloro-4-[(3-chloro-4-fluorophenyl)amino]-6-({[1-(1-methylazepan-4-yl)-1H-1,2,3-triazol-4-yl]methyl}amino)quinoline-3-carbonitrile]

- IC50 [3]: 3.4 nM
Structure (SMILES): N#Cc1cnc2c(Br)cc(NCc3cn(CCCN4CCCCC4)nn3)cc2c1Nc1ccc(F)c(Cl)c1 [Example 538]

- IC50 [3]: 39 nM
Structure (SMILES): CN(C)CCCn1cc(CNc2cc(Cl)c3ncc(C#N)c(Nc4ccc(F)c(Cl)c4)c3c2)nn1 [Example 514]

- IC50 [1]: 4.6 nM
Structure (SMILES): N#Cc1cnc2c(Cl)cc(NCc3cn(CC(=O)N4CCCCCC4)nn3)cc2c1Nc1ccc(F)c(Cl)c1 [Example 814]

- IC50 [3]: 36 nM
Structure (SMILES): CN(C)CCC(c1cccnc1)n1cc(CNc2cc(Cl)c3ncc(C#N)c(Nc4ccc(F)c(Cl)c4)c3c2)nn1 (centres unmarked) [Example 588]

- IC50 [3]: 39 nM
Structure (SMILES): CN1CCN(CCCn2cc(CNc3cc(Cl)c4ncc(C#N)c(Nc5ccc(F)c(Cl)c5)c4c3)nn2)CC1 [Example 627]

- IC50 [1]: 5 nM
Structure (SMILES): CN(C)C(=O)Cn1cc(CNc2cc(Cl)c3ncc(C#N)c(Nc4ccc(F)c(Cl)c4)c3c2)nn1 [Example 788]

- IC50 [3]: 470 nM
Structure (SMILES): N#Cc1cnc2ccc(NCCN3CCOCC3)cc2c1Nc1ccc(Sc2ccccc2)c(Cl)c1 [Example 353]

- IC50 [4]: 1040 nM
Structure (SMILES): N#Cc1cnc2c(Cl)cc(NCc3cn(C4CCN(CC(F)(F)C(F)(F)F)CC4)nn3)cc2c1Nc1ccc(F)c(Cl)c1 [Example 1017]

- IC50 [2]: 9700 nM
Structure (SMILES): CCOC(=O)/C=C/c1cc(NCc2cnc[nH]2)cc2c(Nc3ccc(F)c(Cl)c3)c(C#N)cnc12 [Example 312, Ethyl(2E)-3-{4-[(3-chloro-4-fluorophenyl)amino]-3-cyano-6-[(1H-imidazol-5-ylmethyl)amino]quinolin-8-yl}acrylate]

- IC50 [1]: 1190 nM
Structure (SMILES): CCN1CCCC(Nc2cc(Cl)c3ncc(C#N)c(Nc4ccc(F)c(Cl)c4)c3c2)C1 (centres unmarked) [Example 868]

- IC50 [3]: > 10000 nM
Structure (SMILES): N#Cc1cnc2c(Br)cc([N+](=O)[O-])cc2c1Nc1cccc(Cl)c1 [Example 362]

- IC50 [3]: 3.5 nM
Structure (SMILES): CN(C)C(=O)OCCCn1cc(CNc2cc(Br)c3ncc(C#N)c(Nc4ccc(F)c(Cl)c4)c3c2)nn1 [Example 584]

- IC50 [3]: 290 nM
Structure (SMILES): CN1CCC(Cn2cc(CN(C)c3cc(Br)c4ncc(C#N)c(Nc5ccc(F)c(Cl)c5)c4c3)nn2)CC1 [Example 505]

- IC50 [4]: 150 nM
Structure (SMILES): N#Cc1cnc2c(Cl)cc(NCc3cn(CCC4CCN(C5CCC5)CC4)nn3)cc2c1Nc1ccc(F)c(Cl)c1 [Example 937]

- IC50 [1]: 23 nM
Structure (SMILES): N#Cc1cnc2c(Br)cc(NCc3cn(-c4ccncc4)cn3)cc2c1Nc1ccc(F)c(Cl)c1 [Example 725]

- IC50 [1]: > 3000 nM
Structure (SMILES): N#Cc1cnc2c(Cl)cc(NCCNC(=O)c3cccnc3)cc2c1Nc1ccc(F)c(Cl)c1 [Example 860]

- IC50 [1]: 250 nM
Structure (SMILES): CC(C)(C)OC(=O)N1CCCC(Cn2cc(CNc3cc(Cl)c4ncc(C#N)c(Nc5ccc(F)c(Cl)c5)c4c3)nn2)C1 (centres unmarked) [Example 714]

- IC50 [3]: 3100 nM
Structure (SMILES): CC(C)(C)Nc1c(C#N)cnc2ccc(NCc3cnc[nH]3)cc12 [Example 401]

- IC50 [2]: 3300 nM
Structure (SMILES): N#Cc1ccc(OCC(=O)O)c(CNc2ccc3ncc(C#N)c(Nc4ccc(F)c(Cl)c4)c3c2)c1 [Example 44, (2-{[4-(3-Chloro-4-fluoro-phenylamino)-3-cyano-quinolin-6-ylamino]-methyl}-4-cyano-phenoxy)-acetic acid]

- IC50 [3]: 590 nM
Structure (SMILES): N#Cc1cnc2c(Cl)cc(NCC(O)CO)cc2c1Nc1ccc(F)c(Cl)c1 (centres unmarked) [Example 631]

- IC50 [1]: 11 nM
Structure (SMILES): CC(C)N1CCC(Cn2cc(CNc3cc(Cl)c4ncc(C#N)c(Nc5ccc(F)c(Cl)c5)c4c3)nn2)CC1 [Example 827]

- IC50 [4]: 92 nM
Structure (SMILES): CC(=O)N1CCN(CCn2cc(CNc3cc(Cl)c4ncc(C#N)c(Nc5ccc(F)c(Cl)c5)c4c3)nn2)CC1 [Example 959]

- IC50 [1]: 110 nM
Structure (SMILES): N#Cc1cnc2c(Br)cc(NCc3nc[nH]n3)cc2c1Nc1ccc(F)c(Cl)c1 [Example 667]

- IC50 [2]: 1500 nM
Structure (SMILES): N#Cc1cnc2ccc(NCc3cccc(C(F)(F)F)c3)cc2c1Nc1ccc(F)c(Cl)c1 [Example 149, 6-(3-(trifluoromethyl)benzylamino)-4-(3-chloro-4-fluorophenylamino)quinoline-3-carbonitrile]

- IC50 [3]: 160 nM
Structure (SMILES): CONC(=O)CNc1cc(Cl)c2ncc(C#N)c(Nc3ccc(F)c(Cl)c3)c2c1 [Example 472]

- IC50 [3]: 1480 nM
Structure (SMILES): N#Cc1cnc2ccc(NCc3ccc(OCCN4CCOCC4)nc3)cc2c1Nc1ccc(F)c(F)c1 [Example 344]

- IC50 [1]: 34 nM
Structure (SMILES): N#Cc1cnc2c(Br)cc(NCc3cn(Cc4ccccn4)cn3)cc2c1Nc1ccc(F)c(Cl)c1 [Example 785]

- IC50 [4]: > 3000 nM
Structure (SMILES): N#Cc1cnc2c(Cl)cc(NCc3cncc(C4(O)CCNCC4)c3)cc2c1Nc1ccc(F)c(Cl)c1 [Example 1032]

- IC50 [1]: 68 nM
Structure (SMILES): CC(C)n1cnc(CNc2cc(Br)c3ncc(C#N)c(Nc4ccc(F)c(Cl)c4)c3c2)c1 [Example 804]

- IC50 [2]: > 40000 nM
Structure (SMILES): N#Cc1cnc2c(C(F)(F)F)cc(NCc3cccc(Br)n3)cc2c1Nc1ccc(F)c(Cl)c1 [Example 259, 6-{[(6-Bromopyridin-2-yl)methyl]amino}-4-[(3-chloro-4-fluorophenyl)amino]-8-(trifluoromethyl)quinoline-3-carbonitrile]

- IC50 [1]: 70 nM
Structure (SMILES): CN(C)CC(c1ccccc1)n1cc(CNc2cc(Cl)c3ncc(C#N)c(Nc4ccc(F)c(Cl)c4)c3c2)nn1 (centres unmarked) [Example 740]

- IC50 [2]: 110 nM
Structure (SMILES): CS(=O)(=O)c1ccc(CNc2cc(Cl)c3ncc(C#N)c(Nc4ccc(F)c(Cl)c4)c3c2)cc1 [Example 184, 6-(4-(methylsulfonyl)benzylamino)-8-chloro-4-(3-chloro-4-fluorophenylamino)quinoline-3-carbonitrile]

- IC50 [2]: 920 nM
Structure (SMILES): N#Cc1cnc2ccc(NCc3ccccc3F)cc2c1Nc1ccc(F)c(Cl)c1 [Example 144, 6-(2-fluorobenzylamino)-4-(3-chloro-4-fluorophenylamino)quinoline-3-carbonitrile]

- IC50 [3]: > 40000 nM
Structure (SMILES): CC(C)(C)Nc1c(C#N)cnc2ccc(NCc3ccn[nH]3)cc12 [Example 405]

- IC50 [3]: 3.2 nM
Structure (SMILES): Cc1c(CNc2ccc3ncc(C#N)c(Nc4ccc(F)c(Cl)c4)c3c2)ncn1C [Example 370]

Reference: patent US20060264460A1 (Wyeth, priority 2005, published 2006)
